Measured values taken from patent US20210340130A1, “Compositions and methods for treating attention deficit disorders” (priority 2016, published 2021).
Entries after “also recorded” stand apart in the source; their conditions may differ.

Tests used:
schizophrenia patients = details: cited from earlier work
hippocampal slices = details: cited from earlier work
[1] = system: cyclothiazide binding site; details: cited from earlier work
[2] = system: fragile X syndrome patients; details: cited from earlier work
[3] = system: hippocampal slices (CA1 population spikes)
Protocol: Slice Seizure Assay In these studies extracellular field potentials recording (Population Spikes) in hippocampal slices were used to determine convulsant activity (potential seizure liability). Transverse 300-400 μm hippocampal slices were taken from adult male Sprague-Dawley rats (4-6 week old) and incubated in a submerge slice recording chamber system for 30 to 60 min. The chamber was perfused with oxygenated artificial cerebral spinal fluid (ACSF) comprising (in mM): NaCl 124, KCl 3.0, KH2PO4 1.25, CaCl2.34, MgSO4 2.5, NaHCO3 26 and glucose 10 at room temperature. Population Spike (PS) recordings were made with glass electrodes filled with 2 M NaCl (1-5 megaohm) places in the region of pyramidal cell body of CA1. Electrical stimuli were produced with twisted bipolar nichrome wire electrodes in the Schaffer-commissural fiber afferents. Population spike was induced by activating Schaffer-commissural fiber using single pulse stimulation with delivered at 0.05 Hz. The maximal amplitude of PS was determined by increase stimulating intensity till second spike appears. Then the intensity was decreased to induce a 50% to 60% of maximal response. The amplitude of PS was measured for each response and plotted against time. At same time the amplitude of second PS and/or number of PS was measured and plotted against time. The size of the second PS and numbers of PS were used to estimate the seizure potential or seizure state. With 20 to 50 min stable baseline established testing compound was perfused for 10 to 20 min at each concentration to observe the effect. […] The perfusion then was switched to control ACSF and continued to record until drug effect was washed back to the baseline. CX717 and CX1739 exemplary test ampakine compounds were prepared by dissolving in DMSO and then added to ACSF.
The upper 3 panels of FIG. 5 show amplitudes for PS 1, 2 and 3 m respectively. Lower panel is the measurement of the number of PS.

BDNF production = details: 16 uM; cited from earlier work

Compound: O=C(c1ccc2nccnc2c1)N1CCCCC1 [CX516]
- cognition tests versus placebo groups (schizophrenia patients; add-on to clozapine, olanzapine or risperidone, weeks 4 or 8): did not significantly differ
- adverse side effects (schizophrenia patients; four weeks treatment): fatigue, epigastric discomfort and insomnia
- generalized discharges in hippocampal slices (hippocampal slices): do not
- binding to the cyclothiazide binding site [1]: does not bind to the cyclothiazide binding site
- memory, language use, attention, executive and overall functioning [2]: did not exhibit improved memory

Compound: O=C(c1ccc2c(c1)OCCO2)N1CCCCC1 [CX546]
- generalized discharges in hippocampal slices (hippocampal slices): produce generalized discharges
- binding to the cyclothiazide binding site [1]: binds to the cyclothiazide binding site

Compound: O=C1c2cc3c(cc2OC2CCCN12)OCCO3 (stereo not shown) [CX614, reference compound]
- seizure / convulsant activity ([3]; 16 uM): demonstrated seizure potential activity; also recorded: unacceptable convulsant activity
- BDNF production in hippocampal slices (BDNF production): significantly increases BDNF production

Compound: picrotoxin [reference compound]
- seizure activity (population spikes) ([3]; 50 μM perfusion): induced a seizure like activity at the level of second PS but not third PS
